Earlier results on 2 molecules are cited in patent US20060063742A1, “Method of treatment for or protection against lymphedema” (priority 2004, published 2006).

One data set deals with mice. The following applies: intravenously, doses higher than 3750 mg/kg.
The next data set concerns dogs. Conditions: intravenously, doses higher than 3750 mg/kg.
The next data set relates to humans. Conditions: doses exceeding 40 g/m^2.

Take `O=S(=O)([O-])CCSSCCS(=O)(=O)[O-].[Na+].[Na+]` [Dimesna, disodium 2,2′-dithiobis ethane sulfonate]: the adverse effects result in the data set with mice, in the data set with dogs and in the data set with humans was “no adverse effects” each time.
For `[Cl-].[Na+]` [common table salt], the “accepted oral LD50” value is 3750 mg/kg.
